Laboratory results taken from patent US10479784B2, “Substituted pyrazin-2-amines as inhibitors of ATR kinase” (Vertex Pharmaceuticals Incorporated, priority 2008, dated 2019).

Target: full-length ATR (Homo sapiens (Human), UniProt Q13535)
Test: ATR Inhibition Assay (radioactive-phosphate incorporation)
Type: biochemical
Conditions: read-out: ATR Ki
Summary of the method: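 Full-length human ATR (5 nM) was assayed at 25 °C in 50 mM Tris/HCl pH 7.5, 10 mM MgCl2, 1 mM DTT, with 10 μM [γ-33P]ATP and 800 μM peptide, after 10-min compound preincubation. Reactions were stopped after 24 h, captured on phosphocellulose and counted; Ki(app) came from non-linear regression of initial rates.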

Chain of full-length ATR (Q13535 whole entry): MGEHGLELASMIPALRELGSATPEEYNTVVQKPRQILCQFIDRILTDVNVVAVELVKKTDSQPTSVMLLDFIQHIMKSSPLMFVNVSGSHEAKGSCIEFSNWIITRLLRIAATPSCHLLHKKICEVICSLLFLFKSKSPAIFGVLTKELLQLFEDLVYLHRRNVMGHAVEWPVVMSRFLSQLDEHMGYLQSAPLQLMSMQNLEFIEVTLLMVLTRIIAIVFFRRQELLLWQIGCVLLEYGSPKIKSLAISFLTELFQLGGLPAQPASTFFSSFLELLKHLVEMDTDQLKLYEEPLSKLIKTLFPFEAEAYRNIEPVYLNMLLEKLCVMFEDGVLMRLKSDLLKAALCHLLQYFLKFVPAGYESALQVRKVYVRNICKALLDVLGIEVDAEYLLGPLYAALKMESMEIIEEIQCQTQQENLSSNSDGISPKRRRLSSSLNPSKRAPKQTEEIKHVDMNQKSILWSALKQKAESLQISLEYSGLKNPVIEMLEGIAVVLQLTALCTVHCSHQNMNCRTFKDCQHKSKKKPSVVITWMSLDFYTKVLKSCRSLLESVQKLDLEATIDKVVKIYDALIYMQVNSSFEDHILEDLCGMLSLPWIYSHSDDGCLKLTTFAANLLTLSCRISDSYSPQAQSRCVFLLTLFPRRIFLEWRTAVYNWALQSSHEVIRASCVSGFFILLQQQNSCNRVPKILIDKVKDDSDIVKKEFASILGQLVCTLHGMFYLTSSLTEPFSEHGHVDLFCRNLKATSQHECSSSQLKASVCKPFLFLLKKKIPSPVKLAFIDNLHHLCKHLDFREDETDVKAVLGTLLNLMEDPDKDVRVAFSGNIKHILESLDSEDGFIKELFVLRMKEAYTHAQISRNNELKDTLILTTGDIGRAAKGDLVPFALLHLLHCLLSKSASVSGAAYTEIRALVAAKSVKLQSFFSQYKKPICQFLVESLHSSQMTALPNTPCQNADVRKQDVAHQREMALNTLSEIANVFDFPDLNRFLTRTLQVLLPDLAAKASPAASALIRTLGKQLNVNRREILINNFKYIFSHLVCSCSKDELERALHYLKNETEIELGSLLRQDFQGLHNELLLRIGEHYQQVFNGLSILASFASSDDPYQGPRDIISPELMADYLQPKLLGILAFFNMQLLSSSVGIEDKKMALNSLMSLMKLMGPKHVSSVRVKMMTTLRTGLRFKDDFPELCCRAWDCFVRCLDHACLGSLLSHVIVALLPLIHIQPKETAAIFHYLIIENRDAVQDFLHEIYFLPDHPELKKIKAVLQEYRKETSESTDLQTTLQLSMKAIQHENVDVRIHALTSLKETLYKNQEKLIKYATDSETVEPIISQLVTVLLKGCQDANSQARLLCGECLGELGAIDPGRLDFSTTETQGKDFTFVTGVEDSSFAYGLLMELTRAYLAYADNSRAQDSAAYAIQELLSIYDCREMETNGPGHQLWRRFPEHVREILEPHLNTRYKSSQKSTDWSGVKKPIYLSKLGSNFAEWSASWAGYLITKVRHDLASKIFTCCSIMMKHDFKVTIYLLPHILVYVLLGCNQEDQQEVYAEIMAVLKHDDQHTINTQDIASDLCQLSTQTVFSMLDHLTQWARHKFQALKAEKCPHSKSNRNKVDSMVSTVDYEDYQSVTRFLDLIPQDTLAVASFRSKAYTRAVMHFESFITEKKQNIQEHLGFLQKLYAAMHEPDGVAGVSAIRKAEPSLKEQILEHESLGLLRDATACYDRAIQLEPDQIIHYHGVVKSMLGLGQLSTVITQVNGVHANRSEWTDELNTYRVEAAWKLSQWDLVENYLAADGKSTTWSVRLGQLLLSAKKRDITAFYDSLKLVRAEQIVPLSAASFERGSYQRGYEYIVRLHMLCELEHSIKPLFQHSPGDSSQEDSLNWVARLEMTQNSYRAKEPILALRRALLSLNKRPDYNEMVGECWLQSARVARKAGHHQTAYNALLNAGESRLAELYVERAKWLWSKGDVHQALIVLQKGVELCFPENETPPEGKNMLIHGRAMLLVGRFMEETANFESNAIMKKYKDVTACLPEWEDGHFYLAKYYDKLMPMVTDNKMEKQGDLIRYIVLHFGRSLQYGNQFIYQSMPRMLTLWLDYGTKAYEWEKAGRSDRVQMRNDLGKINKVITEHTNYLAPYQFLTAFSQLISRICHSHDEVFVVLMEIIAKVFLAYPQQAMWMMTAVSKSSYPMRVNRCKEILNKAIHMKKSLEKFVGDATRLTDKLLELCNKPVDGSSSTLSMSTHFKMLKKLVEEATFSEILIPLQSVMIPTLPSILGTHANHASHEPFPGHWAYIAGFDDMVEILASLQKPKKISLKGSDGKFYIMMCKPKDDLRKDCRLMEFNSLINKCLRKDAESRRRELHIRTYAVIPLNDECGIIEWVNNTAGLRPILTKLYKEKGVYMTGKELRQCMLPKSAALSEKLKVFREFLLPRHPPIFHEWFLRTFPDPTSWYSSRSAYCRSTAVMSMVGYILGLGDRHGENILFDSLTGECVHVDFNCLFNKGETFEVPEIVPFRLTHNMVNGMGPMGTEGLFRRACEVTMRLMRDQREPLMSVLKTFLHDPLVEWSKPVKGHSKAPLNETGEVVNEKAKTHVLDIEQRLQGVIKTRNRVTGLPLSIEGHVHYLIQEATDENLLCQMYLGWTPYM

| Ki [nM] | SMILES |
| --- | --- |
| ≤ 10 | CC(CN(C)C)S(=O)(=O)c1ccc(-c2cnc(N)c(-c3nnc(-c4ccccc4F)o3)n2)cc1 (stereo not drawn) [IA-337, 5-[4-[2-(dimethylamino)-1-methyl-ethyl]sulfonylphenyl]-3-[5-(2-fluorophenyl)-1,3,4-oxadiazol-2-yl]pyrazin-2-amine] |
| ≤ 10 | CC(C)S(=O)(=O)c1ccc(-c2cnc(N)c(-c3nnc(-c4ccc(CNC[C@@H](C)O)cc4F)o3)n2)cc1 [IA-341, (R)-1-(4-(5-(3-amino-6-(4-(isopropylsulfonyl)phenyl)pyrazin-2-yl)-1,3,4-oxadiazol-2-yl)-3-fluorobenzylamino)propan-2-ol] |
| ≤ 10 | CCCNCc1ccc(-c2cc(-c3nc(-c4ccc(S(=O)(=O)C(C)C)cc4)cnc3N)on2)cc1 [IIA-6, 5-(4-(isopropylsulfonyl)phenyl)-3-(3-(4-((propylamino)methyl)phenyl)isoxazol-5-yl)pyrazin-2-amine] |
| 10 to 100 | CC(=O)c1cccc(-c2cnc(N)c(-c3nnc(-c4ccccc4)o3)n2)c1 [IA-249, 1-[3-[5-amino-6-(5-phenyl-1,3,4-oxadiazol-2-yl)pyrazin-2-yl]phenyl]ethanone] |
| ≤ 10 | CC(C)S(=O)(=O)c1ccc(-c2cnc(N)c(-c3nnc(-c4ccc(CNC5COC5)cc4F)o3)n2)cc1 [IA-319, 3-[5-[2-fluoro-4-[(oxetan-3-ylamino)methyl]phenyl]-1,3,4-oxadiazol-2-yl]-5-(4-isopropylsulfonylphenyl)pyrazin-2-amine] |
| ≤ 10 | CNCc1ccc(-c2nnc(-c3nc(-c4ccc(S(=O)(=O)C(C)C)c(Cl)c4)cnc3N)o2)c(F)c1 [IA-329, 5-(3-chloro-4-isopropylsulfonyl-phenyl)-3-[5-[2-fluoro-4-(methylaminomethyl)phenyl]-1,3,4-oxadiazol-2-yl]pyrazin-2-amine] |

More lines, now with the values behind:

| SMILES | Ki [nM] |
| --- | --- |
| N#CCCN1CCN(C(=O)c2ccc(-c3cnc(N)c(C(=O)Nc4ccccc4)n3)cc2)CC1 [Compound I-81, 3-amino-6-(4-(4-(2-cyanoethyl)piperazine-1-carbonyl)phenyl)-N-phenylpyrazine-2-carboxamide] | ≤ 10 |
| CS(=O)(=O)c1ccc(-c2cnc(N)c(-c3nc4ccccc4s3)n2)cc1 [Compound I-146, 3-(benzo[d]thiazol-2-yl)-5-(4-(methylsulfonyl)phenyl)pyrazin-2-amine] | 10 to 100 |
| N#CCc1ccccc1-c1cnc(N)c(-c2nnc(-c3ccccc3)o2)n1 [IA-221, 2-[2-[5-amino-6-(5-phenyl-1,3,4-oxadiazol-2-yl)pyrazin-2-yl]phenyl]acetonitrile] | 100 to 5000 |
| CC(C)S(=O)(=O)c1ccc(-c2cnc(N)c(-c3nnc(NC(=O)CN)o3)n2)cc1 [IA-82, 2-amino-N-[5-[3-amino-6-(4-isopropylsulfonylphenyl)pyrazin-2-yl]-1,3,4-oxadiazol-2-yl]acetamide] | 100 to 5000 |
| COc1cccc(NC(=O)c2nc(-c3cccnc3)cnc2N)c1 [Compound I-86, 3-amino-N-(3-methoxyphenyl)-6-(pyridin-3-yl)pyrazine-2-carboxamide] | 10 to 100 |
| COc1ccccc1-c1nnc(-c2nc(-c3ccc(C(=O)N(C)C)cc3)cnc2N)o1 [IA-242, 4-[5-amino-6-[5-(2-methoxyphenyl)-1,3,4-oxadiazol-2-yl]pyrazin-2-yl]-N,N-dimethyl-benzamide] | ≤ 10 |
| Nc1ncc(-c2ccc(C(=O)N3CCCNCC3)cc2)nc1-c1nnc(-c2ccccc2)o1 [IA-1] | ≤ 10 |
| CC(C)S(=O)(=O)c1ccc(-c2cnc(N)c(-c3nnc(NC(=O)[C@H]4N[C@H]5CC[C@@H]4C5)o3)n2)cc1 [IA-160, (1R,4S,6S)—N-[5-[3-amino-6-(4-isopropylsulfonylphenyl)pyrazin-2-yl]-1,3,4-oxadiazol-2-yl]-5-azabicyclo[2.2.1]heptane-6-carboxamide] | 100 to 5000 |
| CN(C)CCNc1nccc(-c2cnc(N)c(-c3nnc(-c4ccccc4)o3)n2)c1C#N [IA-209, 4-[5-amino-6-(5-phenyl-1,3,4-oxadiazol-2-yl)pyrazin-2-yl]-2-(2-dimethylaminoethylamino)pyridine-3-carbonitrile] | 10 to 100 |
